# From paper PMC11842588, “A first-in-class selective inhibitor of ERK1/2 and ERK5 overcomes drug resistance with a single-molecule strategy” (Signal Transduction and Targeted Therapy, 2025)
# Where “and” joins values, the source holds several entries; their conditions need not be identical. Identical values can stand only once.
# What was measured:
# [1] = tested on: Caco-2 cell monolayer model; assay: Caco-2 bidirectional transport; assay type: in vitro ADME; details: Caco-2, 120 min
# Experimental: (§1) Caco-2 cells were inoculated in a Transwell chamber with a pore size of 0.4 μm, and cultured for 15–20 days, the formation of the monolayer cell model was verified by the permeability determination of fluorescein sodium. Then a certain concentration of culture-medium containing candidate compounds was added to the upper and lower sides of different groups of cells, and the culture-medium at the corresponding position was absorbed after the specified time. After the internal standard compound was added, the content of candidate compounds was determined by LC-MS/MS to investigate the apparent permeability and effection rate, and to analyze the bidirectional transport characteristics of candidate compounds in the Caco-2 cell monolayer model.
# [2] = Caco-2 bidirectional transport; assay type: in vitro ADME; details: human
# Experimental: as §1
# Ki-67 = assay: IHC of Ki-67 in xenograft tumor tissue; assay type: in vivo, nude mice (BALB/c-nu); details: 50 mg/kg
# Experimental: All procedures were performed in accordance with the Laboratory Animals Welfare Act, the Guide for the Care and Use of Laboratory Animals and the Guidelines and Policies. The rodent experiment was approved by IACUC (Institutional Animal Care and Use Committee) in the Experimental Animal Ethics Committee of West China Hospital (Approval No. 2021672A). 48 female nude mice (BALB/c-nu, 5 weeks, 15–18 g, purchased from Beijing HFK Bio-Technology Co., LTD) were acclimatized for one week in an SPF-grade animal facility (ventilated, 20–25 °C, 50–60% humidity). […] When the tumor volume reached approximately 100 mm^3 (V = L × W^2/2), the mice were randomly divided into six groups (n = 8 per group): (1) Control group (normal saline); (2) 25 mg/kg SKLB-D18-treated group; (3) 50 mg/kg SKLB-D18-treated group; (4) 50 mg/kg BVD-523-treated group; (5) 50 mg/kg XMD8-92-treated group; (6) BVD-523 (50 mg/kg) and XMD8-92 (50 mg/kg) combined treatment group. Drugs were freshly prepared with 5% DMSO, 10% Solutol HS-15, and 85% normal saline on the day of administration. […] And the body weight and tumor volume of mice were measured every three days. […]
# Briefly, tumor tissues were dehydrated, embedded, and sectioned. […] Microscopic analysis and imaging were performed, analyzed with ImageJ, and statistical graphs were created using GraphPad Prism 9.5. […]
# [3] = Plasma protein binding rate (ultrafiltration); assay type: in vitro ADME; details: SD rat plasma
# Experimental: Appropriate amount of SD rat plasma was taken and incubated with the specified concentration of compound at 37 °C for a specified time, and unbound compound solution was obtained by ultrafiltration method, and acetonitrile-containing internal standard compound was added to terminate the reaction, and the remaining compound was quantized by LC-MS to calculate the plasma protein binding rate. Calculation formula: Plasma protein binding rate (%) = (Total blood−Ultrafiltrate)/Total blood * 100%.
# ERK1/2 and ERK5 = assay: Cellular thermal shift assay (CETSA); assay type: cell-based; details: 2 μM, MDA-MB-231 and MDA-MB-468 cells, 37–62 °C
# Experimental: Cells were collected by trypsin and then resuspended in PBS. Following heating at the indicated temperatures (37, 42, 47, 52, 57, and 62 °C) for 3 min, cell suspensions were lysed by three freeze−thaw cycles with liquid nitrogen and thawed at room temperature. The lysates were separated by centrifugation at 17,000 × g for 20 min. The supernatants were collected and prepared for Immunoblotting to detect the stability of ERK1/2 and ERK5.
# ERK5 = ERK5 (Homo sapiens, UniProt Q13164); assay: Isothermal titration calorimetry (ITC) assay; assay type: binding; design: ERK5 (residues 48–395) containing His and GST tags was cloned into the pFastBac vector; His (cleaved yes); GST (cleaved yes); made in house; host or cells: Sf9 insect cells (baculovirus); details: 25 °C
# Experimental: The full-length human ERK1 or ERK2 with His-tag was cloned into a pET28a vector. hERK1/2 were expressed in Escherichia coli BL21(DE3), and then were purified using sequential Ni-NTA and Superdex 200 column steps. The SEC purified sample was then concentrated to 10 mg/ml and stored at −80 °C with buffer containing 20 mM HEPES pH 7.5, 150 mM NaCl. ERK5 (residues 48–395) containing His and GST tags was cloned into the pFastBac vector, and the recombinant plasmid was extracted. The recombinant plasmid was transformed into the DH10bac strain, and monoclonal was selected for culture. The recombinant Bacmid was then extracted according to the instructions of the Baculovirus Shuttle Vector Bacmid Mini Preparation Kit (Beyotime) and validated by PCR. 1 × 10^6/well Sf9 cells were counted for transfection and then amplified to obtain P3 ERK5 recombinant baculovirus. It was added to 2 × 10^6/mL Sf9 cells and incubated at 27 °C for 72 h on a shaker to express ERK5. Cells were lysed and supernatant was collected on a Ni-NTA for purification, and a 250 mM imidazole eluate was collected. […]
# Calorimetric experiments were carried on an Affinity ITC (Waters, Shanghai) with 1 mM SKLB-D18 and 0.1 mM ERK1/2/5. […] The data were analyzed with the NanoAnalyze software employing a single binding site model. […]
# Sequence of ERK5 (Q13164 48-395): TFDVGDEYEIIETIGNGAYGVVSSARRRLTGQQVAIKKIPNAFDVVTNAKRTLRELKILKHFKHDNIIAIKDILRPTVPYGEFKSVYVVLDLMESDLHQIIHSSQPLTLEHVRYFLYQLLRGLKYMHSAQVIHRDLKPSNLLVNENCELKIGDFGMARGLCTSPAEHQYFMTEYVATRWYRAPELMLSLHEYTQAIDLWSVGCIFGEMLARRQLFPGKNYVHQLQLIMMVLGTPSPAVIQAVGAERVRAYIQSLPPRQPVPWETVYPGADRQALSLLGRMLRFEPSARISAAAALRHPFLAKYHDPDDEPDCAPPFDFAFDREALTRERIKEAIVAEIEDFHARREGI
smiles,measurement,setting,value
"CN(C)Cc1cccc(Nc2ncc(Cl)c(-c3csc(C(=O)NN4CCOCC4)c3)n2)c1 [SKLB-D18, 4-(5-chloro-2-((3-((dimethylamino)methyl)phenyl)amino)pyrimidin-4-yl)-N-morpholinothiophene-2-carboxamide]",Efflux rate (%),[1],13.7% and 13.7 ± 0.5%
same,Papp A→B at 30 min,"[2]; Caco-2, 30 min, read-out: AP→BL Papp",1.06 ± 0.1 nm/s
same,Papp B→A at 30 min,"[2]; Caco-2, 30 min, read-out: BL→AP Papp",0.11 ± 0.1 nm/s
same,Papp A→B at 60 min,"[2]; Caco-2, 60 min, read-out: AP→BL Papp",3.18 ± 0.6 nm/s
same,Papp B→A at 60 min,"[2]; Caco-2, 60 min, read-out: BL→AP Papp",1.17 ± 0.2 nm/s
same,Papp A→B at 120 min,"[2]; Caco-2, 120 min, read-out: AP→BL Papp",22.3 nm/s
same,Papp B→A at 120 min,"[2]; Caco-2, 120 min, read-out: BL→AP Papp",3.05 nm/s
same,Ki-67 positive area,Ki-67,less than 20%
same,fraction unbound,[3],0.816
same,thermal shift of ERK5 and ERK1/2 proteins (CETSA),ERK1/2 and ERK5,increasing thermal shift
same,Kd,ERK5,0.468 µM
